According to ChEMBL document CHEMBL4052669, “Synthesis, molecular modelling and CYP24A1 inhibitory activity of novel of (E)-N-(2-(1H-imidazol-1-yl)-2-(phenylethyl)-3/4-styrylbenzamides” (Bioorg Med Chem, 2017):

Target: T1, 1,25-dihydroxyvitamin D(3) 24-hydroxylase, mitochondrial (Homo sapiens, UniProt Q07973)
T1 sequence (Q07973 whole entry): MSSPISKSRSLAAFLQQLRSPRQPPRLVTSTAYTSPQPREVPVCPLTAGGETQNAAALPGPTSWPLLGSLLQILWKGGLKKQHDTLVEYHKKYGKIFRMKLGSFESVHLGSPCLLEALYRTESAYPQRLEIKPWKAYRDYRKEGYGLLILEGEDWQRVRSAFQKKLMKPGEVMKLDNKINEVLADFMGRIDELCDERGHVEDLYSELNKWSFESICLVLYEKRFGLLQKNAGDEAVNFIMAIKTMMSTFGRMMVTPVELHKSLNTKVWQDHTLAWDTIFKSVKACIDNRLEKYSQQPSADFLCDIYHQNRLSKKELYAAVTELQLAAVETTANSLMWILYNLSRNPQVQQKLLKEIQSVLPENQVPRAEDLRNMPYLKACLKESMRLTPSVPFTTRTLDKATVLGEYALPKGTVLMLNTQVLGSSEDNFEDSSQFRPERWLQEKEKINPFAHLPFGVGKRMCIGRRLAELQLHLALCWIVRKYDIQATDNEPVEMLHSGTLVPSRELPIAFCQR
Experiment: Inhibition of MBP-tagged human CYP24A1 expressed Escherichia coli BL21-Gold(DE3) incubated for 25 mins in presence of Adx, AdR 1,25(OH)2D3 and NADPH by HPLC method

In order of rising IC50:
1. COc1ccc(C(CNC(=O)c2ccc(/C=C/c3ccccc3)cc2)n2ccnc2)cc1 (stereo not given)  110 nM
2. COc1ccc(/C=C/c2ccc(C(=O)NCC(c3ccc(Cl)cc3)n3ccnc3)cc2)cc1OC (stereo not given)  120 nM
3. O=C(NCC(c1ccc(C(F)(F)F)cc1)n1ccnc1)c1cccc(/C=C/c2ccccc2)c1 (stereo not given)  150 nM
4. O=C(NCC(c1ccc(Cl)cc1)n1ccnc1)c1cccc(/C=C/c2ccccc2)c1 (stereo not given)  160 nM
5. O=C(NCC(c1ccc(C(F)(F)F)cc1)n1ccnc1)c1ccc(/C=C/c2ccccc2)cc1 (stereo not given)  180 nM
6. O=C(NCC(c1ccccc1)n1ccnc1)c1cccc(/C=C/c2ccccc2)c1 (stereo not given)  190 nM
7. O=C(NCC(c1ccc(Cl)cc1)n1ccnc1)c1ccc(/C=C/c2ccccc2)cc1 (stereo not given)  210 nM
8. Cc1ccc(C(CNC(=O)c2ccc(/C=C/c3ccccc3)cc2)n2ccnc2)cc1C (stereo not given)  310 nM
9. O=C(NCC(c1ccccc1)n1ccnc1)c1cccc(/C=C/c2ccccc2C(F)(F)F)c1 (stereo not given)  340 nM
10. O=C(NCC(c1ccccc1C(F)(F)F)n1ccnc1)c1ccc(/C=C/c2ccccc2)cc1 (stereo not given)  350 nM
